Experimental data published in US9770026B2, “Substituted pyrimidine compound and uses thereof” (Shenyang Sinochem Agrochemicals R&D Co., Ltd., priority 2012, dated 2017).

Assays:
Diamond back moth = assay: insecticidal activity against diamond back moth, airbrush spray; assay type: in vivo
Method in brief: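 Airbrush leaf-disc spray test: both faces of 2 cm cabbage discs received 0.5 ml of test solution at 0.7 kg/cm^2. Solutions were made in acetone:methanol (1:1) and brought to concentration with 0.1% Tween 80 in water. Ten second-instar larvae per disc, triplicates, were held at 25° C and 60˜70% R.H., with mortality recorded at 72 hrs.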

armyworm = assay: bioactivity test against armyworm, airbrush spray; assay type: in vivo
[1] = system: Green peach aphids (Myzus Persicae Sulzer); assay: bioactivity test against green peach aphid, airbrush foliar spray; assay type: in vivo
Method in brief: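 Death rate was scored at 48 hrs, held at 25±1 C and 60±5% RH, following airbrush foliar spray (0.5 mL, 10 psi) onto cabbage leaf discs bearing about 15-30 aphids. Test solutions: compound dissolved in 1:1 acetone:methanol, brought to concentration with 0.1% tween 80 water.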

carmine spider mite = assay: bioactivity test against carmine spider mite, airbrush spray; assay type: in vivo
Method in brief: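 Broadbean seedlings infested with adult mites were sprayed with compound (acetone/methanol stock diluted in 0.1% Tween 80 water) by airbrush at 0.7 kg/cm^2, 0.5 ml. Three replicates were run. Mortality was scored after 72 hrs.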

wheat powdery mildew = assay: protectant activity in vivo against wheat powdery mildew; settings: 400 ppm
cucumber downy mildew = assay: protectant activity in vivo against cucumber downy mildew; settings: for pest or weed control at 25 µg/mL: read-out: control effect against cucumber downy mildew (%), 25 mg/L; for pest or weed control at 50 µg/mL: read-out: control effect against cucumber downy mildew (%), 50 mg/L; for pest or weed control at 100 µg/mL: read-out: control effect against cucumber downy mildew (%), 100 mg/L; for pest or weed control at 400 µg/mL: read-out: control effect against cucumber downy mildew (%), 400 mg/L
corn rust = assay: protectant activity in vivo against corn rust; settings: Zea mays, 168 h; for pest or weed control at 0.4 µg/mL: read-out: control effect against corn rust (%), 0.4 mg/L; for pest or weed control at 0.4 µg/mL / pest or weed control at 1.6 µg/mL / pest or weed control at 6.25 µg/mL / pest or weed control at 25 µg/mL / pest or weed control at 100 µg/mL / pest or weed control at 400 µg/mL: protectant activity; for pest or weed control at 1.6 µg/mL: read-out: control effect against corn rust (%), 1.6 mg/L; for pest or weed control at 6.25 µg/mL: read-out: control effect against corn rust (%), 6.25 mg/L; for pest or weed control at 25 µg/mL: read-out: control effect against corn rust (%), 25 mg/L; for pest or weed control at 100 µg/mL: read-out: control effect against corn rust (%), 100 mg/L; for pest or weed control at 400 µg/mL: read-out: control effect against corn rust (%), 400 mg/L
[2] = 600 ppm, mortality after 72 hrs
[3] = 72 h, 600 mg/L, read-out: Insecticidal activity against armyworm (%)
[4] = Myzus persicae, foliar, 48 h, 10 mg/L, contrastive test, read-out: Insecticidal activity against peach aphid (%)
[5] = Myzus persicae, foliar, 48 h, 100 mg/L, contrastive test, read-out: Insecticidal activity against peach aphid (%)
[6] = Myzus persicae, foliar, 48 h, 600 mg/L, contrastive test, read-out: Insecticidal activity against peach aphid (%)
[7] = Cucumis sativus, 168 h, protectant activity

## CCc1ncnc(NCCc2ccc(Oc3ccc(Cl)cc3)nc2)c1Cl [III-187]
Diamond back moth; [2]
  control (test results against diamond back moth): 100%
armyworm; 10 mg/L
  Insecticidal activity against armyworm (%): 95%
armyworm; 100 mg/L
  Insecticidal activity against armyworm (%): 100%
armyworm; 600 mg/L
  Insecticidal activity against armyworm (%): 100%
armyworm; 100 ppm, mortality after 72 h
  control (test results against armyworm): 100%
armyworm; 600 ppm, mortality after 72 h
  control (test results against armyworm): 100%
[1]; 10 mg/L, contrastive test
  Insecticidal activity against peach aphid (%): 100%
[1]; 100 mg/L, contrastive test
  Insecticidal activity against peach aphid (%): 100%
[1]; 600 mg/L, contrastive test
  Insecticidal activity against peach aphid (%): 100%
[1]; 10 ppm, death rate after 48 hrs
  control (test results against green peach aphid): 100%
[1]; 100 ppm, death rate after 48 hrs
  control (test results against green peach aphid): 100%
[1]; 600 ppm, death rate after 48 hrs
  control (test results against green peach aphid): 100%
Carmine spider mite; 100 ppm, mortality after 72 hrs
  control against carmine spider mite: 100%
Carmine spider mite; [2]
  control against carmine spider mite: 100%
Wheat powdery mildew
  protectant activity against wheat powdery mildew in vivo: 100%
Cucumber downy mildew; 6.25 mg/L, protectant activity
  control effect against cucumber downy mildew (%): 100%
Cucumber downy mildew; 12.5 mg/L, protectant activity
  control effect against cucumber downy mildew (%): 100%
Cucumber downy mildew; 25 mg/L, protectant activity
  control effect against cucumber downy mildew (%): 100%
Cucumber downy mildew; 50 mg/L, protectant activity
  control effect against cucumber downy mildew (%): 100%
Cucumber downy mildew; 100 mg/L, protectant activity
  control effect against cucumber downy mildew (%): 100%
Cucumber downy mildew; 400 mg/L, protectant activity
  control effect against cucumber downy mildew (%): 100%
Cucumber downy mildew; 6.25 ppm
  protectant activity against cucumber downy mildew in vivo: 100%
Cucumber downy mildew; 12.5 ppm
  protectant activity against cucumber downy mildew in vivo: 100%
Cucumber downy mildew; 25 ppm
  protectant activity against cucumber downy mildew in vivo: 100%
Cucumber downy mildew; 50 ppm
  protectant activity against cucumber downy mildew in vivo: 100%
Cucumber downy mildew; 100 ppm
  protectant activity against cucumber downy mildew in vivo: 100%
Cucumber downy mildew; 400 ppm
  protectant activity against cucumber downy mildew in vivo: 100%

## FC(F)c1ncnc(NCCc2ccc(Oc3ccc(Cl)cc3)cc2)c1Cl [II-8915]
Diamond back moth; 72 h, 600 ppm, mortality after 72 hrs, read-out: control (test results against diamond back moth)
  pest or weed control at 600 ppm: 100%
armyworm; 72 h, 10 mg/L, read-out: Insecticidal activity against armyworm (%)
  pest or weed control at 10 µg/mL: 44%
armyworm; 72 h, 100 mg/L, read-out: Insecticidal activity against armyworm (%)
  pest or weed control at 100 µg/mL: 95%
armyworm; [3]
  pest or weed control at 600 µg/mL: 100%
armyworm; 72 h, 100 ppm, mortality after 72 h
  pest or weed control at 100 ppm: 80 to 99%
armyworm; 72 h, 600 ppm, mortality after 72 h
  pest or weed control at 600 ppm: 100%
[1]; Myzus persicae, foliar, 48 h, 1.25 mg/L, contrastive test, read-out: Insecticidal activity against peach aphid (%)
  pest or weed control at 1.25 µg/mL: 100%
[1]; Myzus persicae, foliar, 48 h, 2.5 mg/L, contrastive test, read-out: Insecticidal activity against peach aphid (%)
  pest or weed control at 2.5 µg/mL: 100%
[1]; Myzus persicae, foliar, 48 h, 5 mg/L, contrastive test, read-out: Insecticidal activity against peach aphid (%)
  pest or weed control at 5 µg/mL: 100%
[1]; [4]
  pest or weed control at 10 µg/mL: 100%
[1]; [5]
  pest or weed control at 100 µg/mL: 100%
[1]; [6]
  pest or weed control at 600 µg/mL: 100%
[1]; Myzus persicae, foliar, 48 h, 2.5 ppm, death rate after 48 hrs
  pest or weed control at 2.5 ppm: 100%
[1]; Myzus persicae, foliar, 48 h, 5 ppm, death rate after 48 hrs
  pest or weed control at 5 ppm: 100%
[1]; Myzus persicae, foliar, 48 h, 10 ppm, death rate after 48 hrs
  pest or weed control at 10 ppm: 100%
[1]; Myzus persicae, foliar, 48 h, 100 ppm, death rate after 48 hrs
  pest or weed control at 100 ppm: 100%
[1]; Myzus persicae, foliar, 48 h, 600 ppm, death rate after 48 hrs
  pest or weed control at 600 ppm: 100%
Carmine spider mite; Tetranychus cinnabarinus, 72 h, 100 ppm, mortality after 72 hrs
  pest or weed control at 100 ppm: 100%
Carmine spider mite; Tetranychus cinnabarinus, 72 h, 600 ppm, mortality after 72 hrs
  pest or weed control at 600 ppm: 100%
Corn rust
  pest or weed control at 0.4 µg/mL: 30%
  pest or weed control at 1.6 µg/mL: 80%
  pest or weed control at 6.25 µg/mL: 100%
  pest or weed control at 25 µg/mL: 100%
  pest or weed control at 100 µg/mL: 100%
  pest or weed control at 400 µg/mL: 100%
Corn rust; read-out: protectant activity against corn rust in vivo, 6.25 ppm
  pest or weed control at 6.25 ppm: 100%
Corn rust; read-out: protectant activity against corn rust in vivo, 25 ppm
  pest or weed control at 25 ppm: 100%
Corn rust; read-out: protectant activity against corn rust in vivo, 100 ppm
  pest or weed control at 100 ppm: 100%
Corn rust; read-out: protectant activity against corn rust in vivo, 400 ppm
  pest or weed control at 400 ppm: 100%
Cucumber downy mildew; Cucumis sativus, 168 h, read-out: control effect against cucumber downy mildew (%), 3.125 mg/L, protectant activity
  pest or weed control at 3.125 µg/mL: 20%
Cucumber downy mildew; Cucumis sativus, 168 h, read-out: control effect against cucumber downy mildew (%), 6.25 mg/L, protectant activity
  pest or weed control at 6.25 µg/mL: 90%
Cucumber downy mildew; Cucumis sativus, 168 h, read-out: control effect against cucumber downy mildew (%), 12.5 mg/L, protectant activity
  pest or weed control at 12.5 µg/mL: 95%
Cucumber downy mildew; [7]
  pest or weed control at 25 µg/mL: 99%
  pest or weed control at 50 µg/mL: 100%
  pest or weed control at 100 µg/mL: 100%
  pest or weed control at 400 µg/mL: 100%
Cucumber downy mildew; Cucumis sativus, 168 h, read-out: protectant activity against cucumber downy mildew in vivo, 6.25 ppm
  pest or weed control at 6.25 ppm: 80 to 99%
Cucumber downy mildew; Cucumis sativus, 168 h, read-out: protectant activity against cucumber downy mildew in vivo, 12.5 ppm
  pest or weed control at 12.5 ppm: 80 to 99%
Cucumber downy mildew; Cucumis sativus, 168 h, read-out: protectant activity against cucumber downy mildew in vivo, 25 ppm
  pest or weed control at 25 ppm: 80 to 99%
Cucumber downy mildew; Cucumis sativus, 168 h, read-out: protectant activity against cucumber downy mildew in vivo, 50 ppm
  pest or weed control at 50 ppm: 80 to 99%
Cucumber downy mildew; Cucumis sativus, 168 h, read-out: protectant activity against cucumber downy mildew in vivo, 100 ppm
  pest or weed control at 100 ppm: 100%
Cucumber downy mildew; Cucumis sativus, 168 h, read-out: protectant activity against cucumber downy mildew in vivo, 400 ppm
  pest or weed control at 400 ppm: 100%

## Cc1ncnc(NC(C)c2ccc(Oc3ccc(C(F)(F)F)cn3)cc2)c1Cl (stereo not drawn) [CK28, reference compound]
Diamond back moth; 72 h, 600 mg/L
  pest or weed control at 600 µg/mL: 0%
armyworm; [3]
  pest or weed control at 600 µg/mL: 29%
[1]; [4]
  pest or weed control at 10 µg/mL: 43%
[1]; [5]
  pest or weed control at 100 µg/mL: 100%
[1]; [6]
  pest or weed control at 600 µg/mL: 100%
Carmine spider mite; Tetranychus cinnabarinus, 72 h, 10 mg/L, contrastive test, read-out: Insecticidal activity against carmine spider mite (% )
  pest or weed control at 10 µg/mL: 22%
Carmine spider mite; Tetranychus cinnabarinus, 72 h, 100 mg/L, contrastive test, read-out: Insecticidal activity against carmine spider mite (% )
  pest or weed control at 100 µg/mL: 100%
Carmine spider mite; Tetranychus cinnabarinus, 72 h, 600 mg/L, contrastive test, read-out: Insecticidal activity against carmine spider mite (% )
  pest or weed control at 600 µg/mL: 100%
Corn rust
  pest or weed control at 0.4 µg/mL: 0%
  pest or weed control at 1.6 µg/mL: 0%
  pest or weed control at 6.25 µg/mL: 95%
  pest or weed control at 25 µg/mL: 100%
  pest or weed control at 100 µg/mL: 100%
  pest or weed control at 400 µg/mL: 100%
Cucumber downy mildew; [7]
  pest or weed control at 25 µg/mL: 0%
  pest or weed control at 50 µg/mL: 20%
  pest or weed control at 100 µg/mL: 40%
  pest or weed control at 400 µg/mL: 100%
